Reference: publication PMC9506420, “Biological Evaluation of 3-Azaspiro[Bicyclo[3.1.0]Hexane-2,5′-Pyrimidines] as Potential Antitumor Agents” (International Journal of Molecular Sciences, 2022)

What was measured:
HeLa cells [1] = experiment: Scratch test of cell motility, HeLa; type: cell-based, human; settings: 10 μg/mL, 24 h, serum-free, nontreated 29.3 ± 2.0%
Method: To evaluate the ability of tested adducts to inhibit cell-motility-associated metastasis, a scratch test was performed on the HeLa, CT26, and Vero cell lines. The results are shown in Figure 11, Figure 12 and Figure 13. Nontreated HeLa cells filled the scratched strip at 29.3 ± 2.0%, while cells filled 10.4 ± 1.8%, 11.2 ± 1.1%, 20.2 ± 2.9%, 4.8 ± 1.9%, and 11.7 ± 1.8% of the scratched strip under treatment with adducts 4d, 4e, 4f, 4h, and 4i, respectively (Figure 11).
Cells were seeded onto Petri dishes at a density of 5 × 10^5 cells per dish and grown to confluency. Scratch wounds were made with a 200 μL pipette tip, after which detached cells were removed by washing with phosphate-buffered saline. In order to inhibit cell proliferation, culture media was replaced to serum-free DMEM. Compounds 4d, 4e, 4f, […] were added to the cultures at a dose of 10 μg/mL and incubated for 24 h. After that, the cells were stained with Hoechst 33,342 (Thermo Fisher Scientific, Waltham, MA, USA), by adding 2 μL of 1 mg/mL stock solution to 2 mL of medium and DIBAC4 (3) (Thermo Fisher Scientific, Waltham, MA, USA) at the same dose. Images were captured using confocal microscope (Axio Observer Z1, Carl Zeiss MicroImaging GmbH, Jena, Germany). The percentage of wound closure in five randomly chosen fields was calculated with NIH ImageJ software.

CT26 cells = experiment: Actin cytoskeleton staining (rhodamine-phalloidin, confocal microscopy), CT26; type: cell-based, mouse; settings: CT26, 5 μg/mL, 24 h; for percentage of cells with normal stress fibers (C): control 64%
Method: (§1) Therefore, in the current study, the actin cytoskeleton structure of HeLa, CT26, and Vero cells was analyzed, after the impact of compounds 4a–i, by the presence of filopodia-like protrusions and the availability of stress fibers (Figure 14, Figure 15 and Figure 16). […] HeLa cells were more sensitive to the action of tested products, compared to CT26 and Vero cells.
(§2) Cells were seeded onto Petri dishes with cover slips at a density of 2 × 10^5 cells per dish and incubated for 24 h. After that, cells were treated with compounds 4d, 4e, 4f, 4h, and 4i (5 μg/mL) for 24 h. The medium was removed, and cells were fixed with 4% paraformaldehyde (Sigma-Aldrich, St. Louis, MO, USA), washed three times with PBS, and permeabilized with 0.3% Triton-X100 (Sigma-Aldrich, St. Louis, MO, USA). The cells were rinsed three times with PBS. Actin filaments (microfilaments) were stained at 37 °C for 15 min with rhodamine-phalloidin (Invitrogen, Carlsbad, CA, USA). The samples were rinsed three times with PBS, followed by embedding in Fluoroshield medium (Sigma-Aldrich, St. Louis, MO, USA). Cells were imaged using an Axio Observer Z1 confocal microscope (Carl Zeiss MicroImaging GmbH, Jena, Germany). In each experiment, at least 30 cells were imaged. Images were analyzed by a pathologist, blinded to the treatment mode used for each group, using ImageJ software.

Vero cells = experiment: Actin cytoskeleton staining (rhodamine-phalloidin, confocal microscopy), Vero; type: cell-based, African green monkey; settings: 5 μg/mL, 24 h
Method: as §1, §2

HeLa cells [2] = experiment: Actin cytoskeleton staining (rhodamine-phalloidin, confocal microscopy), HeLa; type: cell-based, human; settings: 5 μg/mL, 24 h
Method: as §1, §2

Compound | scratched strip filled by cells (HeLa cells [1]) | percentage of cells with filopodia-like deformations (A) (CT26 cells; control 43%) | percentage of cells with normal stress fibers (C) (CT26 cells) | percentage of cells with disassembled stress fibers (D) (Vero cells) | percentage of cells with filopodia-like deformations (A) (Vero cells) | percentage of cells with normal stress fibers (C) (Vero cells) | percentage of cells without filopodia-like deformations (B) (Vero cells) | percentage of cells with normal stress fibers (C) (HeLa cells [2]; control 80%) | percentage of cells with filopodia-like deformations (A) (HeLa cells [2]; control 91%)
O=C1NC(=O)C2(N[C@@H](c3ccccc3)[C@@]3(c4ccccc4)[C@H](c4ccccc4)[C@@]23c2ccccc2)C(=O)N1 [Compound 4i] | 11.7 ± 1.8% | 38% | 38% | 2% | 30% | 98% | 70% |  | 
CCCC[C@@H]1NC2(C(=O)NC(=O)NC2=O)[C@]2(c3ccccc3)[C@@H](c3ccccc3)[C@]12c1ccccc1 [Compound 4e] | 11.2 ± 1.1% |  |  | 11% | 44% | 89% | 56% |  | 
CSCC[C@@H]1NC2(C(=O)NC(=O)NC2=O)[C@]2(c3ccccc3)[C@@H](c3ccccc3)[C@]12c1ccccc1 [Compound 4h] | 4.8 ± 1.9% |  | 36% | 8% | 46% | 92% | 54% |  | 
CC(C)C[C@@H]1NC2(C(=O)NC(=O)NC2=O)[C@]2(c3ccccc3)[C@@H](c3ccccc3)[C@]12c1ccccc1 [Compound 4f] | 20.2 ± 2.9% |  |  | 4% | 43% | 96% | 57% | 10% | 35%
CCC[C@@H]1NC2(C(=O)NC(=O)NC2=O)[C@]2(c3ccccc3)[C@@H](c3ccccc3)[C@]12c1ccccc1 [Compound 4d] | 10.4 ± 1.8% |  |  | 6% | 45% | 94% | 55% |  | 
